In assay [1] the target is T1, B2-receptors in h-CM cells (Homo sapiens, UniProt P30411).
T1 construct: B2-receptor proteins in h-TM, h-CM and h-NPE cells; endogenous in cells; host or cells: human trabecular meshwork (h-TM), human ciliary muscle (h-CM) and human non-pigmented ciliary epithelial (h-NPE) cells
T1 sequence (P30411 1-391): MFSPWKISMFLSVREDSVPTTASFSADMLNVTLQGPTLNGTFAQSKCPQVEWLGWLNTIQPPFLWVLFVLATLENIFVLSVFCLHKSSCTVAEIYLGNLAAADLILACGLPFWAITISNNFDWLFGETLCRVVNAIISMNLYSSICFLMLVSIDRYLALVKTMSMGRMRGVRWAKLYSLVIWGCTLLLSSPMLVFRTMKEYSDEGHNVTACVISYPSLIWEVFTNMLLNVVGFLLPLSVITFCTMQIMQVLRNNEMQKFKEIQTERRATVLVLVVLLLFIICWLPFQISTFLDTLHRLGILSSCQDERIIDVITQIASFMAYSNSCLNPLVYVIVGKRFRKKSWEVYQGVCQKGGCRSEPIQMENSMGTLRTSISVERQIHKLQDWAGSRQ
Description: [Ca2+]i mobilization (FLIPR) in h-CM cells, agonist mode. The class given is cell-based. The following applies: h-CM cells, mean ± SEM. The method, then: (§1) On the day of the experiment, one vial of FLIPR Calcium Assay Kit dye is re-suspended in 50 mL of a FLIPR buffer consisting of Hank's Balanced Salt Solution (HBSS), 20 mM HEPES, and 2.5 mM probenecid, pH 7.4. Cells are loaded with the calcium-sensitive dye by addition of an equal volume (50 μL) to each well of the 96-well plate and incubated with dye for 1 h at 23° C. After this time, the test compound plate and cell plate are placed in the FLIPR instrument. At the beginning of an experimental run, a signal test is performed to check the basal fluorescence signal from the dye-loaded cells and the uniformity of the signal across the plate. The basal fluorescence is adjusted between 8000-12000 counts by modifying the exposure time, the camera F-stop, or the laser power. Instrument settings for a typical assay are the following: laser power 0.3-0.6 W, camera F-stop F/2, and exposure time 0.4 sec.
(§2) Fluorescence data are collected in real-time at 1.0 sec intervals for the first 60 secs and at 6.0 sec intervals for an additional 120 secs. […] The data are then analyzed using an automated, iterative, sigmoidal curve-fitting computer program to obtain the potency and intrinsic activities of the test agents as previously described (Sharif et al. J. Pharmacol. Exp. Ther. 286: 1094-1102, 1998; Sharif et al. Invest. Ophthalmol. Vis. Sci. 39:2562-2571, 1998; Kelly et al. J. Pharmacol. Exp. Ther. 304: 238-245, 2003). The sources of materials and reagents for such assays can be found in the references cited above.

In assay [2] the target is human cloned B2-receptors (Homo sapiens, UniProt P30411). Description: HTRF-based assay of endogenous IP1 production in CHO cells. The class given is cell-based. Particulars: CHO cells expressing human cloned B2-receptors, read-out: EC50, production of endogenous IP1 from PI turnover.
Description: The cells are suspended in IP1 stimulation buffer containing Hepes 10 mM, CaCl2 1 mM, MgCl2 0.5 mM, KCl 4.2 mM, NaCl 146 mM, Glucose 5.5 mM, LiCl 50 mM pH 7.4, then distributed in microplates at a density of 40,000 cells/well (B2 receptor assays) or 30,000 cells/well (B1 receptor assays). Test compounds are added to the cells at various concentrations and incubated for 20 min at 37° C. […] Following the 20 min incubation at 37° C., the cells are lysed and the fluorescence acceptor (D2-labeled IP1) and fluorescence donor (anti-IP1 antibody labeled with europium cryptate) are added. After 60 min at room temperature, the fluorescence transfer is measured at λex=337 nm and λem=620 and 665 nm using a microplate reader.
Assay [3] deals with T2, B2-receptors in h-NPE cells (Homo sapiens, UniProt P30411).
T2 construct: B2-receptor proteins in h-TM, h-CM and h-NPE cells; endogenous in cells; host or cells: human trabecular meshwork (h-TM), human ciliary muscle (h-CM) and human non-pigmented ciliary epithelial (h-NPE) cells
T2 sequence (P30411 1-391): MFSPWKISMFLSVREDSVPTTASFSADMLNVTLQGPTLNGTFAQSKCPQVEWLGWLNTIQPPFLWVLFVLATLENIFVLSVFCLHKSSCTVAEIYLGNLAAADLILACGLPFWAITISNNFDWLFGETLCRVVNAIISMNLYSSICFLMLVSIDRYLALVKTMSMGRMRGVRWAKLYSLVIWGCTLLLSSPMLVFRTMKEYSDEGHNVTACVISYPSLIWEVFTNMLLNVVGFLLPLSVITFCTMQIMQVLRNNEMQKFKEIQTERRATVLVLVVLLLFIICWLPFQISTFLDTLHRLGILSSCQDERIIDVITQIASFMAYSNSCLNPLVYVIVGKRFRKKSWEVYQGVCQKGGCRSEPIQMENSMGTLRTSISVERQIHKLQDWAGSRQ
Description: [Ca2+]i mobilization (FLIPR) in h-NPE cells, agonist mode. In kind it is cell-based. Particulars: h-NPE cells, mean ± SEM. How it is done:
as §1, §2

Assay [4] deals with T3, B2-receptors in h-TM cells (Homo sapiens, UniProt P30411).
T3 construct: B2-receptor proteins in h-TM, h-CM and h-NPE cells; endogenous in cells; host or cells: human trabecular meshwork (h-TM), human ciliary muscle (h-CM) and human non-pigmented ciliary epithelial (h-NPE) cells
T3 sequence (P30411 1-391): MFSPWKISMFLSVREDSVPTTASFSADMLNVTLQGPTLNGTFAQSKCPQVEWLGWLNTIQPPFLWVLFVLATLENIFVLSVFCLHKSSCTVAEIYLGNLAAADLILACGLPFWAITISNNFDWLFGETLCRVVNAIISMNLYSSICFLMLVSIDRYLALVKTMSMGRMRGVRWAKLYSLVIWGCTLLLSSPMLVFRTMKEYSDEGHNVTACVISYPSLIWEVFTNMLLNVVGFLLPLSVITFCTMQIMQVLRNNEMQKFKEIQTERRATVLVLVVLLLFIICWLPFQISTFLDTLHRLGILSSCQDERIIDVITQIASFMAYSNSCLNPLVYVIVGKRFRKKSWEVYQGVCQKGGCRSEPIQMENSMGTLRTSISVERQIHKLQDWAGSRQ
Description: [Ca2+]i mobilization (FLIPR) in h-TM cells, agonist mode. The class given is cell-based. Particulars: h-TM cells, mean ± SEM. The method, then: as §1, §2

In assay [5] the test system is conscious ocular hypertensive cynomolgus monkey eyes. Description: IOP response in lasered (hypertensive) eyes of conscious cynomolgus monkeys, topical ocular. In kind it is in vivo. Particulars: for % Change in IOP: Table 7, dose = 30 μg. The method, then:
Intraocular pressure (IOP) is determined with an Alcon Pneumatonometer (Alcon Laboratories, Inc., Fort Worth, Tex.) after light corneal anesthesia with 0.1% proparacaine. Right eyes are hypertensive as a result of laser trabeculoplasty. After a baseline IOP measurement, test compound is instilled in the right eyes only of 8-10 cynomolgus monkeys. Vehicle is instilled in the right eyes of 5-6 additional animals. Subsequent IOP measurements are taken at 1, 3, and 6 hours. IOP measurements are also taken on left eyes (normotensive and untreated) at each of these time points. The percent change in IOP from baseline is determined for each animal for every IOP measurement (Sharif et al. J. Ocular Pharmacol. Ther. 17: 305-317, 2001; May et al., J Pharmacol Exp Ther. 306: 301-309, 2003; Sharif et al. Invest. Ophthalmol. Vis. Res. 47: 4001-4010, 2006). Group mean and standard error of the mean (SEM) are calculated for each time point. […] In cases where the compound of invention has poor ocular bioavailability, the compound may need to be administered intracamerally or intravitreally in order to observe the IOP-lowering efficacy.
The IOP-lowering effect was slow to develop but significant IOP reduction was observed even 3 hours post-dosing with maximum ocular hypotension observed 16-48 hours post-dosing (Tables 6-8; FIGS. 3b-5).

The target of assay [6] is T4, BK B2-Receptor in h-CM cells (Homo sapiens, UniProt P30411).
T4 construct: B2-receptor proteins in h-TM, h-CM and h-NPE cells; endogenous in cells; host or cells: human trabecular meshwork (h-TM), human ciliary muscle (h-CM) and human non-pigmented ciliary epithelial (h-NPE) cells
Description: Antagonism of FR-190997-induced [Ca2+]i mobilization in h-CM cells. The class given is cell-based. Particulars: FR-190997 as the agonist, read-out: Antagonist Potency (Ki). How it is done:
as §1, with “Instrument settings for a typical assay are the following: laser power 0.3-0.6 W, camera F-stop F/2, and exposure time 0.4 sec.” left out
Fluorescence data are collected in real-time at 1.0 sec intervals for the first 60 secs and at 6.0 sec intervals for an additional 120 secs. […] The data are then analyzed using an automated, iterative, sigmoidal curve-fitting computer program to obtain the potency and intrinsic activities of the test agents as previously described (Sharif et al. J. Pharmacol. Exp. Ther. 286: 1094-1102, 1998; Sharif et al. Invest. Ophthalmol. Vis. Sci. 39:2562-2571, 1998; Kelly et al. J. Pharmacol. Exp. Ther. 304: 238-245, 2003). […]

The target of assay [7] is T5, BK B2-Receptor in h-NPE cells (Homo sapiens, UniProt P30411).
T5 construct: B2-receptor proteins in h-TM, h-CM and h-NPE cells; endogenous in cells; host or cells: human trabecular meshwork (h-TM), human ciliary muscle (h-CM) and human non-pigmented ciliary epithelial (h-NPE) cells
T5 sequence (P30411 1-391): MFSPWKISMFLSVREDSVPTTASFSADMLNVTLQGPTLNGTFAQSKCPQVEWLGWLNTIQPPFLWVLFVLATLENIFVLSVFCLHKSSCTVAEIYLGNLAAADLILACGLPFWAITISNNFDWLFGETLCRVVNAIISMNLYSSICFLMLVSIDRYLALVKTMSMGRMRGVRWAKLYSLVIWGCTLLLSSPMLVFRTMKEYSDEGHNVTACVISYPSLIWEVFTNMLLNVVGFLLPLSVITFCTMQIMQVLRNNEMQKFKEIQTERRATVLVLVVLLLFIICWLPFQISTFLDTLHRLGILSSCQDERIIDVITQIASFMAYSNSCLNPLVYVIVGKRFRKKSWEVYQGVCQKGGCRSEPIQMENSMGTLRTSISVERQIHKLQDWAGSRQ
Description: Antagonism of FR-190997-induced [Ca2+]i mobilization in h-NPE cells. In kind it is cell-based. The following applies: FR-190997 as the agonist, read-out: Antagonist Potency (Ki). The method, then:
as §1, §2

Another assay has as its system B1-receptor mRNA. Description: Microarray analysis of B1-receptor mRNA in TGFβ2-treated human TM cells. The following applies: Glaucomatous h-TM Cells, mean ± SEM. The class given is cell-based.
Another assay concerns B2-receptor mRNA. Description: Microarray analysis of B2-receptor mRNA in TGFβ2-treated human TM cells. In kind it is cell-based. Particulars: mean ± SEM.
[8] abbreviates: read-out: Intrinsic Activity (Emax, % max relative to BK).
[9] abbreviates: read-out: Potency (EC50), [Ca2+]i mobilization.

The values that follow come from patent US8173668B1 (Alcon Research, Ltd., priority 2007, dated 2012).

Several values for one entry are separate records, joined by “and”; a condition that tells them apart may be missing. Identical values can stand only once.

For the molecule `Cc1cc(OCc2ccccn2)c2cccc(OCc3c(Cl)ccc(N(C)C(=O)CNC(=O)/C=C/c4ccc(/C=C/c5ccncc5)nc4)c3Cl)c2n1` [Compound 1], the Emax (in general, the size of the effect at its maximum, as opposed to the concentration needed) in assay [1] (setting [8]) was determined as 96%; in assay [3] (setting [8]), 86%; in assay [4] (HTM, read-out: Intrinsic Activity (Emax, % max relative to BK)), 93%. For the same molecule, the EC50 (commonly the concentration needed to bring the measured effect to its halfway point) is 237 ± 29 nM in [1] (setting [9]), 38 nM in assay [2], 709 ± 54 nM in assay [3] (setting [9]) and 290 ± 75 nM in assay [4] (setting [9]). Further, the “% Change in IOP” value is recorded as −12.5 ± 3.4% in assay [5] (Dose 1/3 hr), −18.9 ± 6.6% in [5] (Dose 1/6 hr), −26.6 ± 5.4% in assay [5] (Dose 2/24 hr) and −15.1 ± 3.9% in assay [5] (Dose 2/48 hr). Besides, the “lowering of IOP” value in [5] (topical ocular, 0.03-600 μg/eye) was “significant dose-dependent lowering of IOP”.

Consider `Cc1nc2c(OCc3c(Cl)ccc(N(C)C(=O)CNC(=O)/C=C/c4ccc(C(=O)N(C)C)cc4)c3Cl)cccn2c1Br` [FR-167344], for which the Ki (in general, the equilibrium dissociation constant of an inhibitor or competing ligand from its target) is 45 nM and 71 nM in assay [6]; 124 nM in assay [7].

Turning to `CC(=O)Nc1ccc(/C=C/C(=O)NCC(=O)N(C)c2ccc(Cl)c(COc3cccc4ccc(C)nc34)c2Cl)cn1` [FR-173657], the Ki in [6] is 68 nM and 114 nM; in assay [7] it was 439 nM.

B1: TGFβ2: cytokine transforming growth factor-β2 (protein, UniProt P61812 303-414, looked up)
Transforming growth factor …: ALDAAYCFRNVQDNCCLRPLYIDFKRDLGWKWIHEPKGYNANFCAGACPYLWSSDTQHSRVLSLYNTINPEASASPCCVSQDLEPLTILYYIGKTPKIEQLSNMIVKSCKCS
With B1, the “Normalized Levels of B1-receptor mRNA (GC-RMA)” value was 1.54 ± 0.09 in the assay on B1-receptor mRNA (after 1.5 hr) and 0.53 ± 0.05 in the assay on B1-receptor mRNA (after 16 hr). In addition, the “Normalized Levels of B2-receptor mRNA (GC-RMA)” value in the assay on B2-receptor mRNA (Glaucomatous h-TM Cells, after 1.5 hr) was 0.97 ± 0.06; in the assay with B2-receptor mRNA (Glaucomatous h-TM Cells, after 16 hr) it was 0.24 ± 0.06; in the assay with B2-receptor mRNA (Normal h-TM Cells, after 1.5 hr), 0.68 ± 0.05; in the assay with B2-receptor mRNA (Normal h-TM Cells, after 16 hr), 0.14 ± 0.11.
